Assay results as given in patent US11311561B2, “Composition and method for treating, relieving or preventing neuropathic pain, containing choline alfoscerate as active ingredient” (NANOSTEM CO., LTD., priority 2017, dated 2022).
Where “and” joins values, the source holds several entries; their conditions need not be identical. Equal entries are not always repeated.

What was measured:
[1] = tested on: spared nerve injury (SNI) rat model; test: Von Frey filament test (50% up and down threshold) for mechanical allodynia; type: in vivo, Sprague-Dawley (SD) male rats; conditions: for Mechanical threshold (von Frey), Before: 4 weeks after surgery, before drug treatment; for Effect on mechanical allodynia (in words): pregabalin 30 mg/kg or choline alfoscerate 325 mg/kg ip once a day for one week
Text: The spared nerve injury (SNI) rat model was used as an efficient neuropathic pain model and von Freytest was used for assessing mechanical threshold. The SNI model, one of the peripheral nerve injury models that made from the 3 nerve branches (sciatic nerve), the one was spared, and the other 2 nerves (tibial, common peroneal nerve) were axotomized. Within 4 days of injury, mechanical and thermal hyperalgesia occurs, lasting weeks to up to 6 months.
Sprague-Dawley (SD) male rats (Koatech, South Korea) weighing 100-150 g, were used to generate neuropathic pain rat models. The rats were maintained under specifically controlled conditions (ambient temperature 23±2° C., 12-h light/dark cycle). Food pellets (DBL, Chungbuk, South Korea) and water were supplied ad libitum. All procedures complied with Institutional Animal Care and Use Committee of Dankook University (IACUC, South Korea), which adheres to the guidelines issued by the Institution of Laboratory of Animal Resources.
After surgery, rats were divided into three groups: (1) control (0.9% normal saline), (2) pregabalin (30 mg/kg), (3) choline alfoscerate (325 mg/kg).
Four weeks later after surgery, Drugs were injected intraperitoneally once a day for one week.
To generate an efficient neuropathic pain model, the rats were anesthetized under 3% isoflurane (Hana Pharm., South Korea), the left calf of the rat leg was incised and the common peroneal and the tibial nerve of three peripheral nerve branches in the sciatic nerve were axotomized and the sural nerve was spared then the surgical site was closed. After the surgery, animals were placed in the home cage to recover. 2 weeks after surgery, hypersensitivity will occur in the lateral area of the rat left hind paw.
4 weeks later after surgery, we applied von Frey filament test established by 50% up and down threshold method for evaluate mechanical allodynia in SNI model we made (Chaplan et al. 1994). The pain measurement was carried out by three people in order to objectify the results. Rats were habituated 5 minutes in the apparatus. […] We stimulated 5 times in the ventral aspect of rat left paw using each filament from thick to thin. If the rat response to stimulate over 3 times, we considered that the rat has NP. The pain response was determined by the behaviors of the rats suddenly took off their foot and shrank or licked their foot with their tongues. The behavioural patterns of the pain were recorded to calculate the threshold value of the pain.
4 weeks after surgery, when the mechanical stimuli were applied to the left paw of rats using von Frey monofilaments, thresholds were calculated by looking at the behavioral patterns. Through this test, the behavioral patterns that appeared when mechanical stimuli were applied to the neuropathic pain model and expressed as threshold which was a […] assessment of the pain scoring.

[2] = Clinical trial: side effects after the treatment; type: in vivo, human; conditions: Example 1: iv 1 g twice a week; Example 2: oral 400 mg 3 times a day; patients
Method: (§1) The “nerve block treatment group (control group)” patients were injected with 5 mL of 0.5% lidocaine at the sites of pain (4-5 points), once a week.
(§2) The “choline alfoscerate intravenous administration group (Example 1)” patients were intravenously injected slowly with choline alfoscerate (1 g/4 mL) mixed in 100 mL of physiological saline, twice a week.
(§3) The “choline alfoscerate oral administration group (Example 2)” patients were […] with choline alfoscerate (400 mg/capsule), 3 times a day.
Because choline alfoscerate has no effect on the kidney and liver, it is thought that it can be used for people with kidney or liver problems as a therapeutic agent for neuropathic pain.

[3] = tested on: patients with neuropathic pain; test: Clinical trial: pain intensity by 11-point pain intensity numerical rating scale (PI-NRS) over 12 weeks; type: in vivo, human
Text: Patients with neuropathic pain were selected as subjects. The patients were asked to report the characteristics of neuropathic pain (type of neuropathic pain, site of occurrence, time of occurrence and frequency of occurrence), causative factors of pain, presence of diseases and relationship with pain, relationship between pain and drug medication, medication of therapeutic agents for pain, etc.
The characteristics of “nerve block treatment group (control group)” patients are described in Table 1, the characteristics of “choline alfoscerate intravenous administration group (Example 1)” patients are described in Table 2 and the characteristics of “choline alfoscerate oral administration group (Example 2)” patients are described in Table 3.
as §1, §2, §3
Pain intensity was measured for 12 weeks. The pain intensity was evaluated according to the 11-point pain intensity numerical rating scale (PI-NRS), where 0=no pain, weakest pain=1 and most severe pain=10. 2-point reduction in the pain intensity was considered clinically significant as reported (Farrar 2001, Rowbotham 2001, Hawker 2011). The pain intensity was measured on the first visit (T0) and was compared with the pain intensity 2 weeks (T1), 4 weeks (T2), 6 weeks (T3), 8 weeks (T4), 10 weeks (T5) and 12 weeks (T6) after the first drug administration.
Statistical analysis was conducted using the SASS package ver. 23 and significance was tested by the paired t-test.

## C[N+](C)(C)CCOP(=O)([O-])OC[C@H](O)CO [Choline alfoscerate, choline alfoscerate]
[1]; choline alfoscerate group
  Mechanical threshold (von Frey), Before: 2.59 ± 0.87 g
[1]; after choline alfoscerate 325 mg/kg intraperitoneally once a day for one week
  Mechanical threshold (von Frey), After: 7.68 ± 4.48 g
[1]
  Effect on mechanical allodynia (in words): significantly suppressed mechanical allodynia
[2]
  Side effect after the treatment: no side effect
[3]; Example 1: iv 1 g twice a week, Example 2: oral 400 mg 3 times a day, 12 weeks
  Change in pain intensity of neuropathic pain (in words): significant decrease in the pain intensity
[3]; Example 1: iv, Example 2: oral, some patients
  Time after drug administration at which some patients reported decreased neuropathic pain: the next day
[3]; T0, first visit before drug administration, choline alfoscerate iv group, 1 g/4 mL in 100 mL saline twice a week, n=59, listed as Example 1
  Pain intensity (PI-NRS): 6.64 points and 6.64 ± 1.03 points
[3]; T0, first visit before drug administration, choline alfoscerate oral group, 400 mg/capsule 3 times a day, n=54, listed as Example 2
  Pain intensity (PI-NRS): 6.61 points and 6.61 ± 0.83 points
[3]; T0 to T6 (12 weeks), choline alfoscerate iv 1 g twice a week
  Decrease in pain intensity (PI-NRS) from T0: 4.18 points
[3]; T0 to T6 (12 weeks), choline alfoscerate oral 400 mg 3 times a day
  Decrease in pain intensity (PI-NRS) from T0: 4.48 points
[3]; T1, 2 weeks after first administration, choline alfoscerate iv 1 g twice a week, listed as Example 1
  Pain intensity (PI-NRS): 5.19 points and 5.19 ± 1.59 points
[3]; T1, 2 weeks after first administration, choline alfoscerate oral 400 mg 3 times a day, listed as Example 2
  Pain intensity (PI-NRS): 5.41 points and 5.41 ± 1.16 points
[3]; T2, 4 weeks, choline alfoscerate iv 1 g twice a week
  Pain intensity (PI-NRS): 4.56 ± 1.50 points
[3]; T2, 4 weeks, choline alfoscerate oral 400 mg 3 times a day
  Pain intensity (PI-NRS): 4.52 ± 1.42 points
[3]; T3, 6 weeks, choline alfoscerate iv 1 g twice a week
  Pain intensity (PI-NRS): 3.92 ± 1.42 points
[3]; T3, 6 weeks, choline alfoscerate oral 400 mg 3 times a day
  Pain intensity (PI-NRS): 3.63 ± 1.45 points
[3]; T4, 8 weeks, choline alfoscerate iv 1 g twice a week
  Pain intensity (PI-NRS): 3.34 ± 1.21 points
[3]; T4, 8 weeks, choline alfoscerate oral 400 mg 3 times a day
  Pain intensity (PI-NRS): 3.00 ± 1.23 points
[3]; T5, 10 weeks, choline alfoscerate iv 1 g twice a week
  Pain intensity (PI-NRS): 2.85 ± 1.10 points
[3]; T5, 10 weeks, choline alfoscerate oral 400 mg 3 times a day
  Pain intensity (PI-NRS): 2.59 ± 1.13 points
[3]; T6, 12 weeks, choline alfoscerate iv 1 g twice a week, listed as Example 1
  Pain intensity (PI-NRS): 2.46 points and 2.46 ± 0.99 points
[3]; T6, 12 weeks, choline alfoscerate oral 400 mg 3 times a day, listed as Example 2
  Pain intensity (PI-NRS): 2.13 points and 2.13 ± 0.99 points

## CCN(CC)CC(=O)Nc1c(C)cccc1C [Control group, lidocaine]
[3]; T0, first visit before drug administration, nerve block group, 5 mL of 0.5% lidocaine at sites of pain once a week, n=38
  Pain intensity (PI-NRS): 7.00 ± 0.52 points
[3]; T0, first visit before drug administration, nerve block group, 5 mL of 0.5% lidocaine at sites of pain once a week, n=38, listed as control group
  Pain intensity (PI-NRS): 7.00 points
[3]; T0 to T1 (2 weeks), nerve block 0.5% lidocaine once a week
  Decrease in pain intensity (PI-NRS) from T0: 1.61 points
[3]; T0 to T6 (12 weeks), nerve block 0.5% lidocaine once a week
  Decrease in pain intensity (PI-NRS) from T0: 4.76 points
[3]; T1, 2 weeks after first administration, nerve block 0.5% lidocaine once a week
  Pain intensity (PI-NRS): 5.39 ± 0.89 points
[3]; T1, 2 weeks after first administration, nerve block 0.5% lidocaine once a week, listed as control group
  Pain intensity (PI-NRS): 5.39 points
[3]; T2, 4 weeks, nerve block 0.5% lidocaine once a week
  Pain intensity (PI-NRS): 4.66 ± 0.85 points
[3]; T3, 6 weeks, nerve block 0.5% lidocaine once a week
  Pain intensity (PI-NRS): 3.63 ± 0.79 points
[3]; T4, 8 weeks, nerve block 0.5% lidocaine once a week
  Pain intensity (PI-NRS): 2.87 ± 0.81 points
[3]; T5, 10 weeks, nerve block 0.5% lidocaine once a week
  Pain intensity (PI-NRS): 2.37 ± 0.79 points
[3]; T6, 12 weeks, nerve block 0.5% lidocaine once a week
  Pain intensity (PI-NRS): 2.24 ± 0.91 points
[3]; T6, 12 weeks, nerve block 0.5% lidocaine once a week, listed as control group
  Pain intensity (PI-NRS): 2.24 points

## CC(C)C[C@H](CN)CC(=O)O [Pregabalin, pregabalin]
[1]; pregabalin group
  Mechanical threshold (von Frey), Before: 2.42 ± 0.81 g
[1]; after pregabalin 30 mg/kg intraperitoneally once a day for one week
  Mechanical threshold (von Frey), After: 9.91 ± 4.12 g
[1]
  Effect on mechanical allodynia (in words): significantly suppressed mechanical allodynia
